Read-outs that look alike come from different tables or passages of the source.
Key:
hSARM1 SAM-TIR [1] = target: T1, hSARM1 SAM-TIR (Homo sapiens, UniProt Q6SZW1); format: biochemical
T1 construct: made in house
T1 sequence (Q6SZW1 409-724): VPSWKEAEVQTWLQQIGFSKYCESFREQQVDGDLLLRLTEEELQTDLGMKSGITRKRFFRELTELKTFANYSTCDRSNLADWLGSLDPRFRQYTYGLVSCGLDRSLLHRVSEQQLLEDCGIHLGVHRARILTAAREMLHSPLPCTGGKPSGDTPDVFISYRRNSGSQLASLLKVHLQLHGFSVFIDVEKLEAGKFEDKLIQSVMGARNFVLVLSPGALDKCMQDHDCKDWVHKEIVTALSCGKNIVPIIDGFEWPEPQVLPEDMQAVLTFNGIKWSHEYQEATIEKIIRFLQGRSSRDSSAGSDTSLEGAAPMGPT
Protocol: hSARM1 species were routinely assayed by the NAD/NADH-Glo^TM Assay (Promega) while both Aplysia cyclase and CD38 were assayed by fluorometry using ϵNAD ([Orsomando et al., 2000]). […] Other reagents used in addition to, or in place of those above are detailed in text or in figure legends, for example metal ions, free bases, dinucleotide analogues, mononucleotides, and ribosides. Assays were all carried out at 25°C except for temperature studies. Reactions were stopped by HClO4/K2CO3 and analysed by C18-HPLC as reported ([Mori et al., 2014]). Only the acid labile NADH and NADPH were treated with 1 N NaOH and neutralized using 1:1 vol of 1.73 M KH2CO3 while the highly hydrophobic metabolites vacor, VAD, VMN and VR, were analysed by a modified C18-HPLC method ([Buonvicino et al., 2018]). Reaction products were quantified from peak areas (see Figure 2A) based on coelution with standards (except for cyclic products from NAD analogues that were not available and were attributed based on UV-spectra and retention times as predicted). Rates were calculated as follows. Hydrolysis and cyclization were measured from product generation from the respective individual dinucleotide substrate used, e.g., free and cyclic ADP-ribosyl moieties from NAD (Figure 1B). A basal value for hydrolysis/cyclization was taken as sum of these latter two products. […]

hSARM1 full length [2] = target: T2, hSARM1 full length (Homo sapiens, UniProt Q6SZW1); test: NAD(P)ase activity by HPLC (kinetics, substrates, metal ions); format: biochemical; conditions: for basal rate: substrate alone […]
T2 construct: Human recombinant SARM1 full length proteins (wild-type and E642A mutant); made in house
T2 sequence (Q6SZW1 28-724): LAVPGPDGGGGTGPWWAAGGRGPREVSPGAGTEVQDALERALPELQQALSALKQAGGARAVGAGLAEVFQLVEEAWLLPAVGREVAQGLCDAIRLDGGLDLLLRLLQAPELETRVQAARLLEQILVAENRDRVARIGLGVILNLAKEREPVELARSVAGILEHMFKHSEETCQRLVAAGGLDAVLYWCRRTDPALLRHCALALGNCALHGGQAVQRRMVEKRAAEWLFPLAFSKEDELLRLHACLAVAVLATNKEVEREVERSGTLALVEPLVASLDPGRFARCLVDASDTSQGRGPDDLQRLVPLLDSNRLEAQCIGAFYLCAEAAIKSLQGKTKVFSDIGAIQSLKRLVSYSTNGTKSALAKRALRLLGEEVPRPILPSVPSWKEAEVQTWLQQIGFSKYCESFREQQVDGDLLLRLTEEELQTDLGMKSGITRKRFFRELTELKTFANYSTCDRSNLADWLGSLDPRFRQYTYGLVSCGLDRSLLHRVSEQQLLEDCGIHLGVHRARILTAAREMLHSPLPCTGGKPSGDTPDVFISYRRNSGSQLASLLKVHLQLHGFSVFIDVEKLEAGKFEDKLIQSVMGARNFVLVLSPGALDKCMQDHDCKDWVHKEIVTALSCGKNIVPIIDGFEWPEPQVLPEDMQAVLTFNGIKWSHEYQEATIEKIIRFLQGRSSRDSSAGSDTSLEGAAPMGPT
Protocol: (§1) hSARM1 species were routinely assayed by the NAD/NADH-Glo^TM Assay (Promega) while both Aplysia cyclase and CD38 were assayed by fluorometry using ϵNAD ([Orsomando et al., 2000]). […] Other reagents used in addition to, or in place of those above are detailed in text or in figure legends, for example metal ions, free bases, dinucleotide analogues, mononucleotides, and ribosides. Assays were all carried out at 25°C except for temperature studies. Reactions were stopped by HClO4/K2CO3 and analysed by C18-HPLC as reported ([Mori et al., 2014]). Only the acid labile NADH and NADPH were treated with 1 N NaOH and neutralized using 1:1 vol of 1.73 M KH2CO3 while the highly hydrophobic metabolites vacor, VAD, VMN and VR, were analysed by a modified C18-HPLC method ([Buonvicino et al., 2018]). Reaction products were quantified from peak areas (see Figure 2A) based on coelution with standards (except for cyclic products from NAD analogues that were not available and were attributed based on UV-spectra and retention times as predicted). Rates were calculated as follows. Hydrolysis and cyclization were measured from product generation from the respective individual dinucleotide substrate used, e.g., free and cyclic ADP-ribosyl moieties from NAD (Figure 1B). A basal value for hydrolysis/cyclization was taken as sum of these latter two products. In addition to that value, base exchange or transglycosidation was calculated from the expected dinucleotide analog formed in the presence of the corresponding free base, e.g., AcPyrAD from AcPyr and NAD.
(§2) The kinetic parameters were calculated from initial rates obtained from replicates via best-fitting analysis using the following Equation 1 for CD38 and Aplysia cyclase, or Equation 2 for hSARM1 SAM-TIR, or Equation 3 for hSARM1 full length(Equation 1) V =Vmax[S]/Km+[S] […] In that case, the resulting single curves were fit to Equation 3 as above to evaluate any competition between NMN and the substrate used (see Table 1).

hCD38 [3] = target: T3, hCD38 (Homo sapiens, UniProt P28907); test: as above; format: biochemical
T3 construct: a soluble fragment Val43-Ile300 with 6x-His tag at C terminus; 6xHis (C); purchased R&D Systems
T3 sequence (P28907 43-300): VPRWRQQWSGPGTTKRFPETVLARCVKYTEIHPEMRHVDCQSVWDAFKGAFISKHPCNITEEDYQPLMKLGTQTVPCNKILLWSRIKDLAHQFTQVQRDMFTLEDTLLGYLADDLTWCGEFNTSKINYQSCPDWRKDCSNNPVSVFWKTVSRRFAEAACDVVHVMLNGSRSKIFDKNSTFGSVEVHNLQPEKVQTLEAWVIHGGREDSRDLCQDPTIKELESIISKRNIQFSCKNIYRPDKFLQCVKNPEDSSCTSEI
Protocol: as §1, §2

[4] = target: T4, Aplysia californica ADP ribosyl cyclase (Aplysia californica, UniProt P29241); test: Base exchange reactions at neutral pH (HPLC); format: biochemical; parameters: purchased Merck A8950; conditions: NAD […] alone or + AcPyr 2 mM / Vacor 0.5 mM / Na 2 mM
T4 sequence (P29241 25-282): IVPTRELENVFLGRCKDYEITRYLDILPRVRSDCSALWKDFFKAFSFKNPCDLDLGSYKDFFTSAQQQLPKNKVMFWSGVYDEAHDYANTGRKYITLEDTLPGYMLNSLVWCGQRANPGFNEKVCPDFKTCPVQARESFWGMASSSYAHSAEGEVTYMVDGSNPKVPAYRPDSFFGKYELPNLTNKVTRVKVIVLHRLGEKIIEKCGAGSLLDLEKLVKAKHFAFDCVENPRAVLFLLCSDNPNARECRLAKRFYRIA
Protocol: (§3) Multiple time stops from individual assays as above were analyzed for linearity, then extents of hydrolysis (white bars), cyclization (red bars), or base exchange (black bars) were calculated from each corresponding product as shown in Figure 1B and STAR methods. […] See also Figures S3–S5, and Table S1
(§4) Rates were calculated as follows.

hSARM1 SAM-TIR [5] = target: T1, hSARM1 SAM-TIR; test: Base exchange reactions at neutral pH (HPLC); format: biochemical; conditions: NAD […] alone or + AcPyr 2 mM / Vacor 0.5 mM / Na 2 mM
Protocol: as §3, §4

hSARM1 full length [6] = target: T2, hSARM1 full length; test: Base exchange reactions at neutral pH (HPLC); format: biochemical; conditions: hSARM1 full length, no trigger; NAD […] alone or + AcPyr 2 mM / Vacor 0.5 mM / Na 2 mM; pH 7.5
Protocol: as §3, §1

hCD38 [7] = target: T3, hCD38; test: Base exchange reactions at neutral pH (HPLC); format: biochemical; conditions: NAD […] alone or + AcPyr 2 mM / Vacor 0.5 mM / Na 2 mM
Protocol: as §3, §1

[8] = target: T4, Aplysia californica ADP ribosyl cyclase
Protocol: as §1, §2

Structure (SMILES): NC(=O)c1ccc[n+]([C@@H]2O[C@H](COP(=O)([O-])OP(=O)(O)OC[C@H]3O[C@@H](n4cnc5c(N)ncnc54)[C@H](O)[C@@H]3O)[C@@H](O)[C@H]2O)c1 [NAD, nicotinamide adenine dinucleotide]
- Kis (inhibition, catalytic site) (hSARM1 SAM-TIR [1]): >8000 µM
- Ki (hSARM1 full length [2]; SARM1, read-out: Kia): ~300 µM
- cyclization, share of total substrate consumption (hSARM1 full length [2]; hSARM1, no free pyridines): ~10%
- hydrolysis, share of substrate consumption (hSARM1 full length [2]; hSARM1, no free pyridines): ~90%
- specific activity, basal NADase (hydrolysis or cyclization combined) (hSARM1 full length [2]; hSARM1, saturating NAD): ~0.02 U/mg
- basal rate (hSARM1 full length [2]; hSARM1 full length 14.6 µg/ml, 30 min, 25 °C (Figure S2)): 15.8 mU/mg
- Kis (catalytic site) (hSARM1 full length [2]; hSARM1 full length +NMN 5μM, n=1): >8000 µM
- Ki (hSARM1 full length [2]; hSARM1 full length +NMN 5μM, n=1, read-out: Kia (allosteric site)): 385 µM
- Kis (catalytic site) (hSARM1 full length [2]; hSARM1 full length +NMN 10μM, n=1): >8000 µM
- Ki (hSARM1 full length [2]; hSARM1 full length +NMN 10μM, n=1, read-out: Kia (allosteric site)): 415 µM
- Kis (catalytic site) (hSARM1 full length [2]; hSARM1 full length +NMN 20μM, n=1): >8000 µM
- Ki (hSARM1 full length [2]; hSARM1 full length +NMN 20μM, n=1, read-out: Kia (allosteric site)): 787 µM
- Kis (catalytic site) (hSARM1 full length [2]; hSARM1 full length +NMN 50μM, n=1): >8000 µM
- Ki (hSARM1 full length [2]; hSARM1 full length +NMN 50μM, n=1, read-out: Kia (allosteric site)): 1200 µM
- basal rate (hSARM1 full length [2]; hSARM1 full length WT 5.4 µg/ml, 6 hours, 25 °C (Figure S3)): 26.4 mU/mg
- Kis (inhibition, catalytic site on TIR domain) (hSARM1 full length [2]; hSARM1 full length, no NMN): >8000 µM
- Ki (hSARM1 full length [2]; hSARM1 full length, no NMN, read-out: Kia (inhibition, allosteric site on ARM domain)): 324 ± 24.6 µM
- NAD concentration at maximum NADase activity (hSARM1 full length [2]; hSARM1 full length, activity falls to almost zero at 4 mM): 0.25 mM
- hydrolysis, share of NAD consumption (hCD38 [3]; hCD38): > 98%
- specific activity, basal NADase (hydrolysis or cyclization combined) (hCD38 [3]; hCD38, saturating NAD): ~7 U/mg
- rate [4]: 14712 ±399 mU/mg
- rate (hSARM1 SAM-TIR [5]): 342.4 ±56.3 mU/mg
- rate (hSARM1 full length [6]): 21.8 ±0.30 mU/mg
- rate (hCD38 [7]): 7798 ±1624 mU/mg
- cyclization, share of NAD consumption [8]: > 98%
- specific activity, basal NADase (hydrolysis or cyclization combined) ([8]; saturating NAD): ~50 U/mg

From publication PMC8844822, “SARM1 is a multi-functional NAD(P)ase with prominent base exchange activity, all regulated bymultiple physiologically relevant NAD metabolites” (iScience, 2022)
